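The compound was tested at five concentrations on cells cultured in 96-well plates, with a 48-hour exposure period. GI50: concentration for 50% inhibition of growth.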 The source made the active and inactive calls. Rule as the data show it: active = GI50 up to about 1.1 µM and inactive = higher.
Key:
Test in all cases: DTP human tumour cell line panel, 48 h
[1] = test system: Malme-3M
[2] = test system: KM12
[3] = test system: HCC 2998
[4] = test system: UO-31
[5] = test system: UACC-62
[6] = test system: HL-60
[7] = test system: MDA-MB-231
[8] = test system: SN12C
[9] = test system: NCI-H460
[10] = test system: A549
[11] = test system: PC-3
[12] = test system: A498
[13] = test system: OVCAR-8
[14] = test system: SF-268
[15] = test system: HCT-116
[16] = test system: UACC-257
[17] = test system: LOX IMVI
[18] = test system: Hs-578T
[19] = test system: RPMI-8226
[20] = test system: SW-620

| Compound | GI50 [1] | GI50 [2] | GI50 [3] | GI50 [4] | GI50 [5] | GI50 [6] | GI50 [7] | GI50 [8] | GI50 [9] | GI50 [10] | GI50 [11] | GI50 [12] | GI50 [13] | GI50 [14] | GI50 [15] | GI50 [16] | GI50 [17] | GI50 [18] | GI50 [19] | GI50 [20] |
| --- | --- | --- | --- | --- | --- | --- | --- | --- | --- | --- | --- | --- | --- | --- | --- | --- | --- | --- | --- | --- |
| COc1cc(OC)c(-n2[nH]c(=O)n(C)c2=O)c(OC)c1 | > 100 µM (inactive) | > 100 µM (inactive) | > 100 µM (inactive) | > 100 µM (inactive) | > 100 µM (inactive) | > 100 µM (inactive) | > 100 µM (inactive) | > 100 µM (inactive) | > 100 µM (inactive) | > 100 µM (inactive) | > 100 µM (inactive) | > 100 µM (inactive) | > 100 µM (inactive) | > 100 µM (inactive) | > 100 µM (inactive) | > 100 µM (inactive) | > 100 µM (inactive) | > 100 µM (inactive) | > 100 µM (inactive) | > 100 µM (inactive) |
| CCOC(=O)C(CCN1CCC2(CC1)C(=O)N(C)CN2c1ccccc1)C(=O)OCC | > 100 µM (inactive) | > 100 µM (inactive) | 57.7 µM (inactive) | > 100 µM (inactive) | > 100 µM (inactive) | > 100 µM (inactive) | > 100 µM (inactive) | > 100 µM (inactive) | > 100 µM (inactive) | > 100 µM (inactive) | > 100 µM (inactive) | > 100 µM (inactive) | > 100 µM (inactive) | > 100 µM (inactive) | > 100 µM (inactive) | > 100 µM (inactive) | > 100 µM (inactive) | > 100 µM (inactive) | > 100 µM (inactive) | > 100 µM (inactive) |
| CC(O)CC(=O)CO[C@H]1[C@H](O)[C@@H](O)[C@@H](O)[C@@H]2NC(=O)c3c(cc4c(c3O)OCO4)[C@H]21 (stereo not given in full) | 0.0118 µM (active) | 0.0316 µM (active) | 0.0181 µM (active) | 0.115 µM (active) | 0.0541 µM (active) | 0.0386 µM (active) | 0.054 µM (active) | 0.0266 µM (active) | 0.0275 µM (active) | 0.042 µM (active) | 0.0272 µM (active) | 0.0218 µM (active) | 0.0332 µM (active) | 0.0222 µM (active) | 0.0264 µM (active) | 0.0397 µM (active) | 0.0208 µM (active) | 0.0398 µM (active) | 0.0226 µM (active) | 0.109 µM (active) |
